Here are results for 14 compounds from patent US4208514A, “4(3H)-Oxobenzo-2,1,3-thiadiazine-2,2-dioxides” (The Dow Chemical Company, priority 1976, dated 1980).

What all share (assay type): in vivo
For test [1], the system named is Cotton. The test can be described thus: Selective post-emergent greenhouse test, Cotton (crop injury). The conditions noted are these: for plant injury at 358.672 g/ha / plant injury at 706.135 g/ha: Gossypium hirsutum, post-emergence, 336 h, 2 weeks, crop, read-out: % Control Cotton; for plant injury at 358.672 g/ha: 0.32 lbs/acre; for plant injury at 706.135 g/ha: 0.63 lbs/acre. An excerpt:
(§1) So as to illustrate clearly the phytotoxic properties of the various active ingredients of the present invention, a group of controlled greenhouse experiments is described below.
(§2) Various species of plants, both broadleaf weeds and valuable crops, were planted in beds of good agricultural soil in a greenhouse. After the plants had emerged and grown to a height of about 2-6 inches, a portion of the plants were sprayed with an aqueous mixture, made by mixing a selected active ingredient and emulsifier or dispersant with water to provide solution containing 250 or 125 ppm active ingredient, employing sufficient amounts of the treating composition to provide low post emergent application rates of about 0.63 or 0.32 pounds per acre. Other portions of the plants were left untreated to serve as controls. In each test the active ingredient was a 3-methylethyl-1H-2,1,3-benzothiadiazin-4(3H)-one-2,2-dioxide having a substituent in the one position according to the invention.
(§3) After a period of 2 weeks the selective effect of the test ingredient on the plants was evaluated by a comparison with the control group of plants.

Test [2] has as its system Jimson Weed. The test can be described thus: Selective post-emergent greenhouse test, Jimson Weed. The conditions noted are these: post-emergence, 336 h, 2 weeks; for pest or weed control at 358.672 g/ha: 0.32 lbs/acre; for pest or weed control at 706.135 g/ha: 0.63 lbs/acre.
Text: as §1, §2, §3

Test [3] has as its system Velvet Leaf. The test can be described thus: Selective post-emergent greenhouse test, Velvet Leaf. The conditions noted are these: for pest or weed control at 358.672 g/ha / pest or weed control at 706.135 g/ha: post-emergence, 336 h, 2 weeks; for pest or weed control at 358.672 g/ha: 0.32 lbs/acre; for pest or weed control at 706.135 g/ha: 0.63 lbs/acre.
Text: as §1, §2, §3

The subject of test [4] is Soybean. In words: Selective post-emergent greenhouse test, Soybean (crop injury). The following applies: Glycine max, post-emergence, 336 h, 2 weeks, read-out: % Control Soybean; for plant injury at 358.672 g/ha: 0.32 lbs/acre; for plant injury at 706.135 g/ha: 0.63 lbs/acre.
Text: as §1, §2, §3

The structures appear in SMILES notation.

For orientation: pest or weed control means the degree to which the test organism was suppressed or injured, in per cent. Low readings indicate a weak effect, high ones a strong effect. `CC(C)N1C(=O)c2ccccc2N(C(=O)C(C)(C)C)S1(=O)=O` [COC(CH3)3, 3-(1-Methylethyl)-1-(2,2-dimethyl-1-oxopropyl)-1H-2,1,3- -benzothiadiazin-4(3H)-one-2,2-dioxide]: in test [1] (post-emergent), the plant injury at 358.672 g/ha came out at 0% and the plant injury at 706.135 g/ha came to 40%. In test [2], this compound registered a pest or weed control at 358.672 g/ha of 70% and a pest or weed control at 706.135 g/ha of 100%. In test [3], the pest or weed control at 358.672 g/ha amounted to 80% and the pest or weed control at 706.135 g/ha was 100%. In addition, in test [4], the plant injury at 358.672 g/ha worked out at 0% and the plant injury at 706.135 g/ha was 0%.
Regarding `CCC(=O)N1c2ccccc2C(=O)N(C(C)C)S1(=O)=O` [COC2 H5, 1H-2,1,3-Benzothiadiazin-4(3H)-one: 3-(1-methylethyl)-1-(1-oxopropyl)-; 2,2-dioxide], in test [1] (post-emergent), the plant injury at 358.672 g/ha came to 0% and the plant injury at 706.135 g/ha came to 100%. For the same compound, in test [3], the pest or weed control at 358.672 g/ha was 100% and the pest or weed control at 706.135 g/ha came out at 100%. Further, in test [4], the plant injury at 358.672 g/ha is 0% and the plant injury at 706.135 g/ha turned out to be 0%.
Take `CC(C)N1C(=O)c2ccccc2N(C(=O)N(C)C)S1(=O)=O` [CON(CH3)2, 1H-2,1,3-Benzothiadiazine-1-carboxamide: N,N-Dimethyl-3,4-dihydro-3-(1-methylethyl)-4-oxo-, 2,2-dioxide]: the plant injury at 706.135 g/ha in test [1] (post-emergent) turned out to be 40%. In test [2], this compound came in with a pest or weed control at 358.672 g/ha of 100% and a pest or weed control at 706.135 g/ha of 100%. Moreover, in test [3], the pest or weed control at 358.672 g/ha came out at 40% and the pest or weed control at 706.135 g/ha worked out at 95%. In addition, in test [4], the plant injury at 358.672 g/ha stood at 0% and the plant injury at 706.135 g/ha was determined as 0%.
As to `CCC(C)OC(=O)N1c2ccccc2C(=O)N(C(C)C)S1(=O)=O` (stereo not shown), the plant injury at 358.672 g/ha in test [1] (post-emergent) was determined as 30%; in test [4], 0%. The plant injury at 706.135 g/ha amounted to 30% in test [1] (post-emergent) and 0% in test [4]. For the same compound, the pest or weed control at 358.672 g/ha in test [2] and in test [3] was 100% in each case. For the same compound, the pest or weed control at 706.135 g/ha in test [2] and in test [3] was 100% throughout.
On to `CCN(CC)C(=O)N1c2ccccc2C(=O)N(C(C)C)S1(=O)=O` [CON(C2 H5)2], for which the plant injury at 358.672 g/ha in test [1] (post-emergent) was 10%; in test [4], 0%. In addition, the plant injury at 706.135 g/ha in test [1] (post-emergent) is 90%; in test [4], 0%. The pest or weed control at 358.672 g/ha came out at 100% in test [2] and 0% in test [3]. The pest or weed control at 706.135 g/ha in test [2] came out at 100%; in test [3], 20%.
For `CC(C)N1C(=O)c2ccccc2N(C(=O)OCCCl)S1(=O)=O` [CO2 CH2 CH2 Cl], in test [1] (post-emergent), the plant injury at 358.672 g/ha was found to be 10% and the plant injury at 706.135 g/ha was 10%. Besides, in test [2], the pest or weed control at 358.672 g/ha was 80% and the pest or weed control at 706.135 g/ha worked out at 100%. In test [3], this compound showed a pest or weed control at 358.672 g/ha of 95% and a pest or weed control at 706.135 g/ha of 100%. Also, in test [4], the plant injury at 358.672 g/ha was determined as 0% and the plant injury at 706.135 g/ha was found to be 0%.
In the case of `CC(C)N1C(=O)c2ccccc2N(C(=O)c2ccccc2)S1(=O)=O`, in test [1] (post-emergent), the plant injury at 358.672 g/ha turned out to be 0% and the plant injury at 706.135 g/ha worked out at 0%. In test [2], this compound gave a pest or weed control at 358.672 g/ha of 80% and a pest or weed control at 706.135 g/ha of 80%. In addition, in test [3], the pest or weed control at 358.672 g/ha came out at 0% and the pest or weed control at 706.135 g/ha amounted to 0%. In test [4], the plant injury at 358.672 g/ha was 0% and the plant injury at 706.135 g/ha was 0%.
Regarding `CC(C)N1C(=O)c2ccccc2N(S(=O)(=O)c2ccccc2)S1(=O)=O`, in test [1] (post-emergent), the plant injury at 358.672 g/ha amounted to 0% and the plant injury at 706.135 g/ha was 0%. In test [2], this compound gave a pest or weed control at 358.672 g/ha of 100% and a pest or weed control at 706.135 g/ha of 100%. For the same compound, in test [3], the pest or weed control at 358.672 g/ha came to 0% and the pest or weed control at 706.135 g/ha worked out at 30%. In test [4], the plant injury at 358.672 g/ha was determined as 0% and the plant injury at 706.135 g/ha was 0%.
For `CCCCCCCCCCCC(=O)N1c2ccccc2C(=O)N(C(C)C)S1(=O)=O` [CO(CH2)10 CH3, 3-(1-Methylethyl)-1-(1-oxododecanyl)-1H-2,1,3-benzothiadiazin-4 (3H)-one-2,2-dioxide], in test [1] (post-emergent), the plant injury at 358.672 g/ha was 0% and the plant injury at 706.135 g/ha is 20%. Besides, in test [2], the pest or weed control at 358.672 g/ha stood at 100% and the pest or weed control at 706.135 g/ha was 100%. Further, in test [3], the pest or weed control at 358.672 g/ha was 60% and the pest or weed control at 706.135 g/ha amounted to 70%. For the same compound, in test [4], the plant injury at 358.672 g/ha is 0% and the plant injury at 706.135 g/ha turned out to be 0%.
As to `CC(C)COC(=O)N1c2ccccc2C(=O)N(C(C)C)S1(=O)=O` [CO2 CH2 CH(CH3)2, 1H-2,1,3-Benzothiadiazine-1-carboxylic Acid: 3,4-Dihydro-3-(1-methylethyl)-4-oxo-, 2-Methylpropyl Ester, 2,2-Dioxide], in test [1] (post-emergent), the plant injury at 358.672 g/ha stood at 0% and the plant injury at 706.135 g/ha came out at 0%. In test [2], this compound gave a pest or weed control at 358.672 g/ha of 100% and a pest or weed control at 706.135 g/ha of 100%. In test [3], this compound displayed a pest or weed control at 358.672 g/ha of 100% and a pest or weed control at 706.135 g/ha of 100%. In test [4], the plant injury at 358.672 g/ha is 10% and the plant injury at 706.135 g/ha came to 10%.
In the case of `CC(Br)C(=O)N1c2ccccc2C(=O)N(C(C)C)S1(=O)=O` (stereo not shown) [COCHBrCH3, 1H-2,1,3-Benzothiadiazin-4(3H)-one: 1-(2-Bromo-1-oxopropyl)-3-(1-methylethyl)-; 2,2-dioxide], the plant injury at 358.672 g/ha in test [1] (post-emergent) and in test [4] was 0% each time. For the same compound, the plant injury at 706.135 g/ha is 4% in test [1] (post-emergent) and 0% in test [4]. For the same compound, the pest or weed control at 358.672 g/ha in test [2] and in test [3] was 100% throughout. Moreover, the pest or weed control at 706.135 g/ha in test [2] and in test [3] was 100% in each case.
As to `CC(C)N1C(=O)c2ccccc2N(S(=O)(=O)N(C)C)S1(=O)=O` [SO2 N(CH3)2, 1H-2,1,3-Benzothiadiazin-4-(3H)-one; 1-Dimethylsulfamoyl-3-(1-methylethyl)-2,2-dioxide], the figures for the plant injury at 358.672 g/ha in test [1] (post-emergent) and in test [4] were 5% and 0%, respectively. For the same compound, the plant injury at 706.135 g/ha in test [1] (post-emergent) was 70%; in test [4] it was 0%. Further, the pest or weed control at 706.135 g/ha in test [2] was 100%; in test [3] it was 50%. The pest or weed control at 358.672 g/ha in test [3] came to 70%.
Regarding `CC(C)N1C(=O)c2ccccc2NS1(=O)=O` [3-methylethyl-1H-2,1,3-benzothiadiazin-4(3H)-one-2,2-dioixde, reference compound], the “damage to cotton at dosage rates at which velvet leaf is controlled” value in test [1] (comparison compound, in general) is listed as “cotton suffers substantial damage”. Further, in test [1] (comparison test, about 0.32 pounds per acre, post-emergent), the control of cotton stood at 90%. The “control of velvet leaf” value in test [3] (comparison test, about 0.32 pounds per acre) is reported as “control of velvet leaf was obtained”.
Consider `COC(=O)CCC(=O)N1c2ccccc2C(=O)N(C(C)C)S1(=O)=O` [drawing 13], for which, in test [1] (post-emergent), the plant injury at 358.672 g/ha was 0% and the plant injury at 706.135 g/ha came to 60%. For the same compound, in test [2], the pest or weed control at 358.672 g/ha stood at 100% and the pest or weed control at 706.135 g/ha is 100%. Besides, in test [3], the pest or weed control at 358.672 g/ha stood at 70% and the pest or weed control at 706.135 g/ha was 100%. Also, in test [4], the plant injury at 358.672 g/ha stood at 0% and the plant injury at 706.135 g/ha came to 0%.
